Assay type in all cases: functional
Assay [1] concerns Mycobacterium tuberculosis. Nature of the assay: Antitubercular activity against Mycobacterium tuberculosis H37Rv assessed as growth inhibition by BACTEC MGIT method.
Assay [2] deals with Klebsiella pneumoniae. Nature of the assay: Antibacterial activity against Klebsiella pneumoniae MTCC 109 assessed as growth inhibition by agar streak dilution method.
Assay [3] has as its system Aspergillus niger. The assay can be described thus: Antifungal activity against Aspergillus niger MTCC 282 assessed as growth inhibition by agar streak dilution method.
The subject of assay [4] is Mycobacterium tuberculosis. The assay can be described thus: Antitubercular activity against Mycobacterium tuberculosis H37Rv assessed as growth inhibition by Lowenstein-Jensen method.
Assay [5] deals with Mycobacterium tuberculosis. The assay can be described thus: Antitubercular activity against Mycobacterium tuberculosis H37Rv assessed as growth inhibition at MIC by Lowenstein-Jensen method.
In assay [6] the test system is Salmonella typhi. The assay can be described thus: Antibacterial activity against Salmonella enterica subsp. enterica serovar Typhi MTCC 733 assessed as growth inhibition by agar streak dilution method.
The subject of assay [7] is Proteus vulgaris. The assay can be described thus: Antibacterial activity against Proteus vulgaris MTCC 1771 assessed as growth inhibition by agar streak dilution method.
Assay [8] has as its system Staphylococcus aureus. The assay can be described thus: Antibacterial activity against Staphylococcus aureus MTCC 96 assessed as growth inhibition by agar streak dilution method.
Assay [9] concerns Escherichia coli. Nature of the assay: Antibacterial activity against Escherichia coli MTCC 739 assessed as growth inhibition by agar streak dilution method.
Assay [10] deals with Bacillus cereus. Nature of the assay: Antibacterial activity against Bacillus cereus MTCC 430 assessed as growth inhibition by agar streak dilution method.
The subject of assay [11] is Shigella flexneri. Nature of the assay: Antibacterial activity against Shigella flexneri MTCC 1457 assessed as growth inhibition by agar streak dilution method.
In assay [12] the test system is Pseudomonas aeruginosa. Nature of the assay: Antibacterial activity against Pseudomonas aeruginosa MTCC 741 assessed as growth inhibition by agar streak dilution method.
In assay [13] the test system is Candida albicans. Nature of the assay: Antifungal activity against Candida albicans MTCC 183 assessed as growth inhibition by agar streak dilution method.
Assay [14] has as its system Aspergillus clavatus. Nature of the assay: Antifungal activity against Aspergillus clavatus MTCC 1323 assessed as growth inhibition by agar streak dilution method.
For assay [15], the system named is Aspergillus fumigatus. The assay can be described thus: Antifungal activity against Aspergillus fumigatus MTCC 343 assessed as growth inhibition by agar streak dilution method.

Broadly, the MIC is the lowest concentration that inhibits growth of the organism.

Values after ≈ are worked out from the molar mass of the structure shown.

`O=C(CSc1nnc(-c2cc3ccccc3oc2=O)o1)Nc1nc2ccc(Cl)cc2s1`: the MIC in assay [1] was greater than 6.25 µg/mL; in assay [2], 100 µg/mL (≈ 212 µM); in assay [3], 12.5 µg/mL (≈ 26.5 µM); in [4] it was 62.5 µg/mL (≈ 133 µM); in assay [6] it was 50 µg/mL (≈ 106 µM); in assay [7], 50 µg/mL (≈ 106 µM). Also, the MIC was 50 µg/mL (≈ 106 µM) in [8]; 50 µg/mL (≈ 106 µM) in [9]; 6.25 µg/mL (≈ 13.3 µM) in [10]; 25 µg/mL (≈ 53.1 µM) in [11]; 100 µg/mL (≈ 212 µM) in [12]; 100 µg/mL (≈ 212 µM) in [13]. Also, the figures for the MIC in [14] and in assay [15] were 100 µg/mL (≈ 212 µM) and 25 µg/mL (≈ 53.1 µM), respectively. Further, the “growth inhibition (GI)” value in assay [5] amounted to 96%.
Consider `O=C(CSc1nnc(-c2cc3ccccc3oc2=O)o1)Nc1nc2ccc(Br)cc2s1`, for which the MIC in [1] was greater than 6.25 µg/mL; in [2], 100 µg/mL (≈ 194 µM); in assay [3] it was 25 µg/mL (≈ 48.5 µM); in [4], 12.5 µg/mL (≈ 24.3 µM); in [6], 100 µg/mL (≈ 194 µM); in [7], 50 µg/mL (≈ 97 µM). Also, the MIC was 25 µg/mL (≈ 48.5 µM) in assay [8]; 50 µg/mL (≈ 97 µM) in assay [9]; 3.12 µg/mL (≈ 6.05 µM) in assay [10]; 50 µg/mL (≈ 97 µM) in assay [11]; 100 µg/mL (≈ 194 µM) in [12]; 50 µg/mL (≈ 97 µM) in assay [13]. In addition, the MIC in assay [14] and in assay [15] was 100 µg/mL (≈ 194 µM) each time. For the same compound, in [5], the “growth inhibition (GI)” value turned out to be 99%.
As to `O=C(CSc1nnc(-c2cc3ccccc3oc2=O)o1)Nc1nc2ccc(F)cc2s1`, the MIC in assay [1] is greater than 6.25 µg/mL; in [2], 100 µg/mL (≈ 220 µM); in assay [3] it was 12.5 µg/mL (≈ 27.5 µM); in [4], 50 µg/mL (≈ 110 µM); in [6] it was 50 µg/mL (≈ 110 µM); in assay [7], 100 µg/mL (≈ 220 µM). For the same compound, the minimum inhibitory concentration (MIC) in assay [8] turned out to be 12.5 µg/mL (≈ 27.5 µM); in [9] it was 50 µg/mL (≈ 110 µM); in assay [10], 12.5 µg/mL (≈ 27.5 µM); in assay [11] it was 25 µg/mL (≈ 55 µM); in assay [12], 50 µg/mL (≈ 110 µM); in [13], 50 µg/mL (≈ 110 µM). Further, the results for the MIC in [14] and in [15] were 50 µg/mL (≈ 110 µM) and 25 µg/mL (≈ 55 µM), respectively. In addition, the “growth inhibition (GI)” value in [5] worked out at 98%.
As to `O=C(CSc1nnc(-c2cc3ccccc3oc2=O)o1)Nc1nc2ccc(I)cc2s1`, the MIC in assay [1] was greater than 6.25 µg/mL; in assay [2] it was 100 µg/mL (≈ 178 µM); in assay [3], 100 µg/mL (≈ 178 µM); in [4], 100 µg/mL (≈ 178 µM); in assay [6], 100 µg/mL (≈ 178 µM); in assay [7] it was greater than 100 µg/mL. The MIC is 100 µg/mL (≈ 178 µM) in assay [8]; 50 µg/mL (≈ 88.9 µM) in assay [9]; 100 µg/mL (≈ 178 µM) in assay [10]; 100 µg/mL (≈ 178 µM) in assay [11]; greater than 100 µg/mL in assay [12]; 100 µg/mL (≈ 178 µM) in [13]. Further, the MIC in assay [14] and in assay [15] was 100 µg/mL (≈ 178 µM) each time. Moreover, the “growth inhibition (GI)” value in [5] stood at 97%.
For the compound `O=C(CSc1nnc(-c2cc3ccccc3oc2=O)o1)Nc1nc2ccc([N+](=O)[O-])cc2s1`, the MIC in assay [1] is greater than 6.25 µg/mL; in assay [2] it was 50 µg/mL (≈ 104 µM); in assay [3], 50 µg/mL (≈ 104 µM); in assay [4], 250 µg/mL (≈ 519 µM); in assay [6] it was 100 µg/mL (≈ 208 µM); in assay [7] it was 12.5 µg/mL (≈ 26 µM). In addition, the MIC was 50 µg/mL (≈ 104 µM) in assay [8]; 100 µg/mL (≈ 208 µM) in assay [9]; 100 µg/mL (≈ 208 µM) in [10]; 100 µg/mL (≈ 208 µM) in assay [11]; 100 µg/mL (≈ 208 µM) in [12]; 50 µg/mL (≈ 104 µM) in assay [13]. In addition, the MIC in assay [14] and in assay [15] was 100 µg/mL (≈ 208 µM) in each case. In assay [5], the “growth inhibition (GI)” value is 96%.
Consider `N#Cc1ccc2nc(NC(=O)CSc3nnc(-c4cc5ccccc5oc4=O)o3)sc2c1`, for which the MIC in [1] was greater than 6.25 µg/mL; in assay [2], 25 µg/mL (≈ 54.2 µM); in [3], 100 µg/mL (≈ 217 µM); in assay [4], 100 µg/mL (≈ 217 µM); in assay [6], 100 µg/mL (≈ 217 µM); in assay [7], 100 µg/mL (≈ 217 µM). For the same compound, the MIC in [8] is 25 µg/mL (≈ 54.2 µM); in assay [9], 50 µg/mL (≈ 108 µM); in assay [10] it was 100 µg/mL (≈ 217 µM); in assay [11], greater than 100 µg/mL; in [12], greater than 100 µg/mL; in assay [13], 50 µg/mL (≈ 108 µM). In addition, the results for the MIC in assay [14] and in [15] were 100 µg/mL (≈ 217 µM) and greater than 100 µg/mL, respectively. The “growth inhibition (GI)” value in assay [5] is on record as 98%.
For the compound `Cc1ccc2nc(NC(=O)CSc3nnc(-c4cc5ccccc5oc4=O)o3)sc2c1`, the MIC in [1] was greater than 6.25 µg/mL; in assay [2] it was 100 µg/mL (≈ 222 µM); in [3], greater than 100 µg/mL; in assay [4], 200 µg/mL (≈ 444 µM); in [6], 100 µg/mL (≈ 222 µM); in assay [7], 100 µg/mL (≈ 222 µM). The MIC in assay [8] was 100 µg/mL (≈ 222 µM); in assay [9], greater than 100 µg/mL; in assay [10] it was 100 µg/mL (≈ 222 µM); in assay [11] it was greater than 100 µg/mL; in [12] it was 100 µg/mL (≈ 222 µM); in assay [13] it was 100 µg/mL (≈ 222 µM). In addition, the minimum inhibitory concentration (MIC) is 100 µg/mL (≈ 222 µM) in [14] and greater than 100 µg/mL in assay [15]. Also, in assay [5], the “growth inhibition (GI)” value amounted to 95%.
With `COc1ccc2nc(NC(=O)CSc3nnc(-c4cc5ccccc5oc4=O)o3)sc2c1`, the MIC was greater than 6.25 µg/mL in assay [1]; 100 µg/mL (≈ 214 µM) in [2]; 50 µg/mL (≈ 107 µM) in [3]; 25 µg/mL (≈ 53.6 µM) in assay [4]; 25 µg/mL (≈ 53.6 µM) in assay [6]; 25 µg/mL (≈ 53.6 µM) in assay [7]. The MIC came to 25 µg/mL (≈ 53.6 µM) in [8]; 100 µg/mL (≈ 214 µM) in assay [9]; 50 µg/mL (≈ 107 µM) in assay [10]; 50 µg/mL (≈ 107 µM) in assay [11]; 50 µg/mL (≈ 107 µM) in assay [12]; 50 µg/mL (≈ 107 µM) in assay [13]. The figures for the minimum inhibitory concentration (MIC) in assay [14] and in [15] were 25 µg/mL (≈ 53.6 µM) and 100 µg/mL (≈ 214 µM), respectively. Moreover, the “growth inhibition (GI)” value in assay [5] was 98%.
With `CCOc1ccc2nc(NC(=O)CSc3nnc(-c4cc5ccccc5oc4=O)o3)sc2c1`, the MIC is greater than 6.25 µg/mL in [1]; 100 µg/mL (≈ 208 µM) in [2]; 100 µg/mL (≈ 208 µM) in [3]; 50 µg/mL (≈ 104 µM) in assay [4]; 12.5 µg/mL (≈ 26 µM) in assay [6]; 100 µg/mL (≈ 208 µM) in assay [7]. Also, the MIC came out at 12.5 µg/mL (≈ 26 µM) in assay [8]; 50 µg/mL (≈ 104 µM) in [9]; 25 µg/mL (≈ 52 µM) in [10]; 100 µg/mL (≈ 208 µM) in assay [11]; 6.25 µg/mL (≈ 13 µM) in assay [12]; 100 µg/mL (≈ 208 µM) in [13]. Moreover, the MIC is 50 µg/mL (≈ 104 µM) in assay [14] and 100 µg/mL (≈ 208 µM) in [15]. In addition, in assay [5], the “growth inhibition (GI)” value amounted to 97%.
As for `CC(=O)Nc1ccc2nc(NC(=O)CSc3nnc(-c4cc5ccccc5oc4=O)o3)sc2c1`, the MIC in [1] was greater than 6.25 µg/mL; in assay [2], 100 µg/mL (≈ 203 µM); in assay [3] it was 100 µg/mL (≈ 203 µM); in [4], 100 µg/mL (≈ 203 µM); in assay [6] it was 100 µg/mL (≈ 203 µM); in assay [7], greater than 100 µg/mL. In addition, the MIC in assay [8] is 50 µg/mL (≈ 101 µM); in assay [9] it was 100 µg/mL (≈ 203 µM); in assay [10], 100 µg/mL (≈ 203 µM); in [11], 100 µg/mL (≈ 203 µM); in [12], 12.5 µg/mL (≈ 25.3 µM); in assay [13] it was greater than 100 µg/mL. Besides, the MIC in assay [14] is 12.5 µg/mL (≈ 25.3 µM); in assay [15] it was greater than 100 µg/mL. In addition, the “growth inhibition (GI)” value in assay [5] turned out to be 96%.
With `O=C(O)c1cn(C2CC2)c2cc(N3CCNCC3)c(F)cc2c1=O` [CIPROFLOXACIN], the MIC worked out at 0.78 µg/mL (≈ 2.35 µM) in [2]; 0.39 µg/mL (≈ 1.18 µM) in [6]; 0.39 µg/mL (≈ 1.18 µM) in [7]; 1.56 µg/mL (≈ 4.71 µM) in assay [8]; 0.39 µg/mL (≈ 1.18 µM) in assay [10]; 1.56 µg/mL (≈ 4.71 µM) in assay [11]. In assay [12], the MIC is 0.78 µg/mL (≈ 2.35 µM).
Regarding `CC(=O)N1CCN(c2ccc(OCC3COC(Cn4ccnc4)(c4ccc(Cl)cc4Cl)O3)cc2)CC1` (stereo unspecified) [KETOCONAZOLE], the MIC in [3] was 1.56 µg/mL (≈ 2.94 µM); in assay [13], 1.56 µg/mL (≈ 2.94 µM); in [14], 0.78 µg/mL (≈ 1.47 µM); in assay [15], 0.78 µg/mL (≈ 1.47 µM).

The values are drawn from ChEMBL document CHEMBL3044664, “Synthesis of coumarin-based 1,3,4-oxadiazol-2ylthio-N-phenyl/benzothiazolyl acetamides as antimicrobial and antituberculosis agents” (2013).
